Results published in patent publication US20050064384A1, “Recruitment of mst1 or mst2 protein kinase to induce apoptosis in eukaryotic cells” (priority 2001, published 2005).
“Also recorded” adds a separate entry of the source. Peptide text beside a SMILES is read from it. * marks the point of attachment. Cbz = O=C(OCc1ccccc1)*; CH2F = FC*

What was measured:
Type in all cases: cell-based
NIH3T3 cells = test: Annexin V labeling in NIH 3T3 cells (FACS); settings: zVAD-FMK 42 μM added at the time of transfection; cells harvested 24 hours later; NORECAAX + wild type MST1, or myrMST1
Experimental: Annexin V labeling in NIH 3T3 cells. The assay was as described in (van Engeland et al., Cytometry, 24: 131-139 (1996)) with some modifications. NIH 3T3 cells were plated at 3-4×10^5 per well in a 6-well plate the day before transfection. Cells were transfected in duplicate with 6 μg of DNA and 10 μl of LIPOFECTAMINE™ 2000 transfection reagent (GIBCO BRL, Gaithersburg, Md.) in the presence of 10% serum, as recommended by manufacturer, and left for 19-23 hours. In some experiments, Z-Vad-FMK (Calbiochem) was added to 42 μM (final concentration) at the time of transfection. Rat annexinV, purified from liver or recombinant, labeled with Alexa 488 dye was added to the culture media to 1 mg/ml and cells were incubated 5 minutes at 37° C., followed by 25 minutes at room temperature in the dark. Media with floating cells was transferred to 5 ml centrifuge tubes on ice; the plates were washed twice with 1 ml of HBS (20 mM HEPES, pH 7.4, 150 mM NaCl, 2.5 mM CaCl2) and the washes were added to the tubes with media. Floating cells were pelleted, resuspended in 3 ml of HBS and pelleted again. Adherent cells were scraped into 1 ml HBS, pooled with floating cells from the same dish and resuspended by vortexing. […] Cells were analyzed by Coulter EPICS V XL flow cytometer; the percent of annexinV-positive cells was calculated by the cytometer software. […]

HEK293 cells = test: Apoptosis assay in HEK293 cells (trypan blue exclusion); settings: incubation with zVAD-FMK, data not shown
Experimental: Transient transfections were performed using LIPOFECTAMINE™ transfection reagent (Gibco BRL, Gaithersburg, Md.) according to the manufacturer's instructions. […] Each well was transfected with a total of 0.5 μg DNA and 3.5 μl LIPOFECTAMINE™ transfection reagent.

Jurkat cells = test: Jurkat cell survival by flow cytometry (GFP positive live cells); settings: incubation with zVAD-FMK, data not shown
Experimental: The Jurkat/T antigen cell line was cultured in complete IMDM medium supplemented with 10% FCS, 2 mM glutamine and gentamycin (50 μg/ml) in a humidified incubator with 5% CO2 in air at 37° C. The cells were kept at a density of 0.5-1×10^6/ml. Aliquots containing 3×10^6 Jurkat cells were electorporated at 250 volts and 960 μF with mixtures of plasmids as indicated in the Figures together with 1 μg of cDNA encoding GFP. Twenty-four hours post transfection, cell survival was analyzed by flow cytometry using a previously optimized program to measure percentage of live cells that are GFP positive present in forward scatter/side scatter gate in each experimental condition (Vermes et al., J. Immunol. Meth., 243: 167-190 (2000)). The vital GFP positive cells were selected on the basis of unchanged scatter signals when compared to untransfected cells and the apoptotic cell population with decreased FS and increased SS was excluded from the analysis. The data was expressed as “percent cells surviving” with vector controls set to 100%.

COC(=O)C[C@H](NC(=O)[C@H](C)NC(=O)[C@@H](NC(=O)OCc1ccccc1)C(C)C)C(=O)CF [zVAD-FMK] (Cbz-Val-Ala-Asp(OMe)-CH2F)
suppression of NORECAAX and MST1-induced annexin V binding (staining) (NIH3T3 cells): suppresses; also recorded: fully suppressed | suppression of killing caused by low doses of NORECAAX with MST1 (HEK293 cells): suppressed | suppression of killing caused by low doses of NORECAAX with MST1 (Jurkat cells): suppressed
